Assay results reported in ChEMBL document CHEMBL1158868, “Bioactive and other sesquiterpenes from Chiloscyphus rivularis” (J Nat Prod, 1997).
Values after ≈ are worked out from the molar mass of the structure shown. Active and inactive are the calls of the source. The calls are words filed in the database; no cut-off is given here.

Experiments:
Saccharomyces cerevisiae [1] = assay: Antimicrobial activity against rad52 gene deficient and DNA repair deficient yeast RS322; assay type: functional
Saccharomyces cerevisiae [2] = assay: Antimicrobial activity against rad52.top1 gene deficient yeast RS321; assay type: functional
Saccharomyces cerevisiae [3] = assay: Antimicrobial activity against rad gene expressing and DNA repair proficient wild type yeast RS188N; assay type: functional
[4] = Cytotoxicity against human NCI60 cells; assay type: functional
A549 = assay: Cytotoxicity against human A549 cells; assay type: functional, cell-based

## C[C@H]1CC[C@@H](O)[C@]23CC[C@H](C(=O)O2)[C@]13C [RIVULALACTONE]
Saccharomyces cerevisiae [1]
  IC12: > 500 µg/mL

## C[C@H]1CCC=C2CC[C@H](C(=O)C(O)(CO)CO)[C@@]21C
Saccharomyces cerevisiae [1]
  Activity: inactive

## C=C(CO)C(=O)[C@H]1CCC2=CC(=O)C[C@H](C)[C@]21C
Saccharomyces cerevisiae [1]
  IC12: > 500 µg/mL

## C=C(CO)C(=O)[C@H]1CCC2=CCC[C@H](C)[C@]21C
Saccharomyces cerevisiae [2]
  IC12: > 1000 µg/mL
Saccharomyces cerevisiae [3]
  IC12: 88 µg/mL
Saccharomyces cerevisiae [1]
  IC12: 75 µg/mL
[4]
  GI50: 10 µM
A549
  IC50: 2 µg/mL (≈ 8.53 µM)

## C=C(C)C(=O)[C@H]1CC(=O)C2=CC(=O)C[C@H](C)[C@]21C
Saccharomyces cerevisiae [1]
  IC12: > 500 µg/mL

## C=C(C)C(=O)[C@H]1CCC2=CC(=O)C[C@H](C)[C@]21C
Saccharomyces cerevisiae [1]
  IC12: > 500 µg/mL

## C[C@H]1CCC=C2CC[C@H](C(=O)C3(CO)CO3)[C@@]21C (stereo partly specified)
Saccharomyces cerevisiae [1]
  Activity: inactive
